Test results taken from patent US20230310540A1, “PEPTIDE COMPOSITIONS AND METHODS OF USE THEREOF” (priority 2020, published 2023).
Values after ≈ are worked out from the molar mass of the structure shown. Like-named read-outs stand apart in the source and are kept apart here.

Legend:
[1] = test system: Pseudomonas aeruginosa (CF mucoid and non-mucoid); experiment: Broth dilution MIC against P. aeruginosa isolates from cystic fibrosis patients; type: cell-based
[2] = test system: Klebsiella pneumoniae clinical isolates
[3] = test system: Acinetobacter baumannii (PDR); experiment: Broth dilution MIC against pan drug-resistant A. baumannii isolate; type: cell-based; settings: isolate AB (PDR)
[4] = test system: Methicillin-resistant Staphylococcus aureus (SAP400); experiment: Broth dilution MIC against MRSA isolate; type: cell-based
[5] = isolate KP (Morici), ATCC #33495

| Compound | MIC ([1]; isolate PA (mucoid)) [µM] | MIC ([1]; isolate PA (non-mucoid)) [µM] | MIC ([2]; isolate KP 2146 (NDM-1)) [µM] | MIC ([2]; isolate KP (6)) [µM] | MIC ([2]; isolate KP (46)) [µM] | MIC ([2]; isolate KP (398)) [µM] | MIC ([2]; isolate KP (CRE)) [µM] | MIC [2, 5] [µM] | MIC ([2]; isolate KP (ST258C3)) [µM] | MIC ([2]; isolate KP (ST258I2)) [µM] | MIC ([2]; isolate KP (ST396)) [µM] | MIC ([2]; isolate KP (St258 C2)) [µM] | MIC [3] [µM] | MIC [4] [µM] |
| --- | --- | --- | --- | --- | --- | --- | --- | --- | --- | --- | --- | --- | --- | --- |
| CC(C)(O/N=C(\C(=O)N[C@@H]1C(=O)N2C(C(=O)[O-])=C(C[n+]3ccccc3)CS[C@H]12)c1csc(N)n1)C(=O)O [CAZ, Ceftazidime] | 115.9 (≈ 63.3 µg/mL) | >150 | >150 | >150 | >150 | 132.7 (≈ 72.5 µg/mL) | >150 | >150 | >150 | >150 | >150 | >150 | >150 | >150 |
| CO/N=C(\C(=O)N[C@@H]1C(=O)N2C(C(=O)O)=C(CSc3nc(=O)c(O)nn3C)CS[C@H]12)c1csc(N)n1 [CRO, Ceftriaxone] | 137.2 (≈ 76.1 µg/mL) | 88.45 (≈ 49.1 µg/mL) | >150 | >150 | 1.9 (≈ 1.05 µg/mL) | 0.2 (≈ 0.111 µg/mL) | 45 (≈ 25 µg/mL) | 0.3 (≈ 0.166 µg/mL) | >150 | >150 | 1.9 (≈ 1.05 µg/mL) | >150 | >150 | >150 |
| C[C@@H](O)[C@H]1C(=O)N2C(C(=O)O)=C(S[C@@H]3CN[C@H](C(=O)N(C)C)C3)[C@H](C)[C@H]12 [MEM, Meropenem] | 13.3 (≈ 5.1 µg/mL) | 4 (≈ 1.53 µg/mL) | >150 | 0.2 (≈ 0.0767 µg/mL) | 0.4 (≈ 0.153 µg/mL) | 0.2 (≈ 0.0767 µg/mL) | 108.3 (≈ 41.5 µg/mL) | 0.2 (≈ 0.0767 µg/mL) | >150 | >150 | 0.3 (≈ 0.115 µg/mL) | >150 | >150 | >150 |
| Gentamicin | 5.5 | 8.3 | >150 | >150 | 1.6 | 1.9 | 5.2 | 1.9 | >150 | 8.3 | 2 | >150 | >150 | >150 |
